Values quoted from earlier work, collected in patent US20130195827A1, “NUTRIGENOMIC METHODS TO OVERCOME CARBOHYDRATE BINGEING AND OVEREATING” (priority 2011, published 2013).

What was measured:
lipolysis = conditions: in vitro, p<0.01

| Compound | basal rate of lipolysis (lipolysis) | increase of leptin secretion (leptin secretion) [%] |
| --- | --- | --- |
| C[C@]12CCC(=O)C=C1CC[C@@H]1[C@@H]2[C@@H](O)C[C@@]2(C)[C@H]1CC[C@]2(O)C(=O)CO [cortisol] | significantly reduced |  |
| Insulin: hormone insulin |  | 25 |
